Where two headings read alike, the source gives them in different places.
Legend:
healthy human subject = tested on: healthy human subject; set-up: method as in Lind et al., 2019; Stalder et al., 2017; details: phase I clinical trial, ref Lind et al., 2019, Stalder et al., 2017; cited from earlier work
[1] = tested on: rat model of rheumatoid arthritis; set-up: method as in Crocetti et al., 2020; details: ref Crocetti et al., 2020; cited from earlier work
FPR1 = biological target: T1, FPR1 (Homo sapiens, UniProt P21462); experiment: Ca2+ mobilization in FPR1-transfected HL60 cells; format: cell-based; details: for efficacy (%) HL60‐FPR1: % of the response induced by 5 nM fMLF
T1 construct: expressed in transfected cells
T1 sequence (P21462 1-350): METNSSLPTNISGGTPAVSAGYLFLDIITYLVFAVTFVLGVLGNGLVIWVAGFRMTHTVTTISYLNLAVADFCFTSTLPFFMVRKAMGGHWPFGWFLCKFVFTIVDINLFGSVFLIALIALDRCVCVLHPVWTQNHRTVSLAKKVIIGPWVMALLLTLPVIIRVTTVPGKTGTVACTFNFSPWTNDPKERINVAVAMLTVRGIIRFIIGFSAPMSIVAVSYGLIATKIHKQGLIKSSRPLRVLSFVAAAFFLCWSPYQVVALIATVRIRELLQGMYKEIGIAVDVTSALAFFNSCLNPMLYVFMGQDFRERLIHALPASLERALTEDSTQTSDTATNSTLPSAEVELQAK
Procedure: (§1) Although stable cell lines are cultured under G418 selection pressure, G418 may affect some assays, so it was removed in the last round of culture before assays were performed.
(§2) Changes in intracellular Ca^2+ were measured with a FlexStation II scanning fluorometer (Molecular Devices). The cells, suspended in Hank's balanced salt solution without Ca^2+ and Mg^2+ but with 10 mM HEPES (HBSS^‐), were loaded with 1.25 μg/ml Fluo‐4 a.m. dye and incubated for 30 min in the dark at 37°C. After dye loading, the cells were washed with HBSS^‐ containing 10 mM HEPES, resuspended in HBSS^+ containing Ca^2+, Mg^2+, and 10 mM HEPES (HBSS^+), and aliquoted into the wells of flat‐bottom, half‐area‐well black microtiter plates (2 × 10^5 cells/well). For evaluation of direct agonist activity, compounds of interest were added from a source plate containing dilutions of test compounds in HBSS^+, and changes in fluorescence were monitored (λex = 485 nm, λem = 538 nm) every 5 s for 240 s at room temperature after automated addition of compounds. Maximum change in fluorescence during the first 3 min, expressed in arbitrary units over baseline, was used to determine a response. […] Curve fitting (5–6 points) and calculation of median effective inhibitory concentrations (IC50) were performed by nonlinear regression analysis of the dose–response curves generated using Prism 7 (GraphPad Software, Inc.).

FPR2 = biological target: T2, FPR2 (Homo sapiens, UniProt P25090); experiment: Ca2+ mobilization in FPR2-transfected HL60 cells; format: cell-based; details: for efficacy (%) HL60‐FPR2: % of the response induced by 5 nM WKYMVm
T2 construct: expressed in transfected cells
T2 sequence (P25090 1-351): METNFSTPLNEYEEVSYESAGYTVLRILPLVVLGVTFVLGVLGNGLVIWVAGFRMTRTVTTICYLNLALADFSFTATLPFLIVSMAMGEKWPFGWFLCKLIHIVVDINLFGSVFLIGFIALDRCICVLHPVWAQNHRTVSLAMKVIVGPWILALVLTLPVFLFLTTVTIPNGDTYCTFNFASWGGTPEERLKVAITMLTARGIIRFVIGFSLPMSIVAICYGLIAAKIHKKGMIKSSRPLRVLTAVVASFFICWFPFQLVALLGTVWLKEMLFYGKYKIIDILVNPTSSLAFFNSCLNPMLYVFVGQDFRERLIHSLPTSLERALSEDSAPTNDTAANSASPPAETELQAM
Procedure: as §1, §2

human neutrophils (hPMN) = experiment: Ca2+ mobilization in human neutrophils (hPMN); format: cell-based; details: for efficacy (%) hPMN: % of the response induced by 5 nM fMLF; for EC50: Homo sapiens, Neutrophil
From the text: Blood was collected from healthy donors in accordance with a protocol approved by the Institutional Review Board at Montana State University. Neutrophils were purified from the blood using dextran sedimentation, followed by Histopaque 1077 gradient separation and hypotonic lysis of red blood cells. Isolated neutrophils were washed twice and resuspended in HBSS^‐. Neutrophil preparations were routinely >95% pure, as determined by light microscopy, and >98% viable, as determined by trypan blue exclusion.
Changes in intracellular Ca^2+ were measured with a FlexStation II scanning fluorometer (Molecular Devices). The cells, suspended in Hank's balanced salt solution without Ca^2+ and Mg^2+ but with 10 mM HEPES (HBSS^‐), were loaded with 1.25 μg/ml Fluo‐4 a.m. dye and incubated for 30 min in the dark at 37°C. After dye loading, the cells were washed with HBSS^‐ containing 10 mM HEPES, resuspended in HBSS^+ containing Ca^2+, Mg^2+, and 10 mM HEPES (HBSS^+), and aliquoted into the wells of flat‐bottom, half‐area‐well black microtiter plates (2 × 10^5 cells/well). For evaluation of direct agonist activity, compounds of interest were added from a source plate containing dilutions of test compounds in HBSS^+, and changes in fluorescence were monitored (λex = 485 nm, λem = 538 nm) every 5 s for 240 s at room temperature after automated addition of compounds. Maximum change in fluorescence during the first 3 min, expressed in arbitrary units over baseline, was used to determine a response. […] Curve fitting (5–6 points) and calculation of median effective […] were performed by nonlinear regression analysis of the dose–response curves generated using Prism 7 (GraphPad Software, Inc.).

[2] = tested on: animal models of rheumatoid arthritis; set-up: method as in Burli et al., 2006; Odobasic et al., 2018; details: ref Burli et al., 2006; Odobasic et al., 2018; cited from earlier work
FPR3 = details: Figure 2, ref Vergelli et al., cited from earlier work
[3] = Ca2+ mobilization, mean of three independent experiments, N.A. = no activity (limits efficacy <20% and EC50 < 50 µM)

Cc1cccc(-c2oc(C)nc2C(=O)Nc2cnn(Cc3nc(C(C)(F)F)co3)n2)c1 [Act‐389949]
safety and tolerability (healthy human subject): safe and well tolerated

COc1cccc(-c2cc(C#N)c(=O)n(CC(=O)Nc3ccc(Br)cc3)c2C)c1 [Compound 2a]
anti‐inflammatory activity in vivo [1]: anti‐inflammatory activity

COc1ccc(Nc2c(C#N)cnn2CC(=O)Nc2ccc(Br)cc2)cc1 [Compound 4b, N‐(4‐Bromophenyl)‐2‐[4‐cyano‐5‐(4‐methoxyphenylamino)pyrazol‐1‐yl]acetamide]
melting point: 136 to 139 °C

COc1cccc(Nc2c(C)c(-c3ccccc3)nn2CC(=O)Nc2ccc(Br)cc2)c1 [Compound 4c, N‐(4‐Bromophenyl)‐2‐[5‐(3‐methoxyphenylamino)‐4‐methyl‐3‐phenylpyrazol‐1‐yl]acetamide]
melting point: > 300 °C (dec.)

COc1ccc(Nc2c(C)c(-c3ccccc3)nn2CC(=O)Nc2ccc(Br)cc2)cc1 [Compound 4d, N‐(4‐Bromophenyl)‐2‐[5‐(4‐methoxyphenylamino)‐4‐methyl‐3‐phenylpyrazol‐1‐yl]acetamide]
melting point: 212 to 214 °C

COc1cccc(Nc2ccnn2CC(=O)Nc2ccc(Br)cc2)c1 [Compound 4e, N‐(4‐Bromophenyl)‐2‐[5‐(3‐methoxyphenylamino)‐pyrazol‐1‐yl]acetamide]
EC50 (FPR1): 13.2 ± 2.6 µM | efficacy (%) HL60‐FPR1 (FPR1): 85% | EC50 (FPR2): 23.4 ± 5.3 µM | efficacy (%) HL60‐FPR2 (FPR2): 60% | efficacy (%) hPMN (human neutrophils (hPMN)): 75% | EC50 (human neutrophils (hPMN)): 8.2 ± 2.6 µM | melting point: 140 to 143 °C

COc1cccc(-c2nn(CC(=O)Nc3ccc(Br)cc3)c(C)c2C#N)c1 [Compound 7a, N‐(4‐Bromophenyl)‐2‐[4‐cyano‐3‐(3‐methoxyphenyl)‐5‐methylpyrazol‐1‐yl]acetamide]
EC50 (FPR1): 18.4 ± 4.3 µM | efficacy (%) HL60‐FPR1 (FPR1): 75% | EC50 (FPR2): 6.1 ± 2.2 µM | efficacy (%) HL60‐FPR2 (FPR2): 75% | preference for FPR2 (FPR2; FPR2 over FPR1, from EC50 values): threefold | efficacy (%) hPMN (human neutrophils (hPMN)): 80% | EC50 (human neutrophils (hPMN)): 6.5 ± 1.6 µM

O=C(Cn1c(=O)ccn1-c1ccccc1)Nc1ccc(Br)cc1 [Compound 9a, N‐(4‐Bromophenyl)‐2‐(5‐oxo‐2‐phenyl‐2,5‐dihydropyrazol‐1‐yl)acetamide]
melting point: 136 to 139 °C

Nc1cn(-c2ccccc2)n(CC(=O)Nc2ccc(Br)cc2)c1=O [Compound 9b, 2‐(4‐Amino‐5‐oxo‐2‐phenyl‐2,5‐dihydropyrazol‐1‐yl)‐N‐(4‐bromophenyl)acetamide]
EC50 (FPR2): 23.1 ± 6.3 µM | efficacy (%) HL60‐FPR2 (FPR2): 50% | EC50 (µM) hPMN (human neutrophils (hPMN); Ca2+ mobilization in human neutrophils, mean of three independent experiments, N.A. = no activity (limits efficacy <20% and EC50 < 50 µM)): inactive | melting point: 160 to 163 °C

COc1cccc(Nc2cn(-c3ccccc3)n(CC(=O)Nc3ccc(Br)cc3)c2=O)c1 [Compound 10, N‐(4‐Bromophenyl)‐2‐[4‐(3‐methoxyphenylamino)‐5‐oxo‐2‐phenyl‐2,5‐dihydropyrazol‐1‐yl]acetamide]
melting point: 163 to 166 °C

CCCCCCn1c(=O)c(-c2cccc(OC)c2)cn1-c1ccccc1 [Compound 13f, Hexyl‐4‐(3‐methoxyphenyl)‐1‐phenyl‐1,2‐dihydropyrazol‐3‐one]
EC50 (FPR1): 20.2 ± 5.4 µM | efficacy (%) HL60‐FPR1 (FPR1): 35% | EC50 (FPR2): 10.5 ± 3.5 µM | efficacy (%) HL60‐FPR2 (FPR2): 90% | efficacy (%) hPMN (human neutrophils (hPMN)): 55% | EC50 (human neutrophils (hPMN)): 13.8 ± 4.2 µM

Cc1cc(OCC(=O)Nc2ccc(Br)cc2)n[nH]1 [Compound 15, N‐(4‐bromophenyl)‐2‐[(5‐methyl‐1H‐pyrazol‐3‐yl)oxy]acetamide]
EC50 (FPR1): 9.8 ± 2.7 µM | efficacy (%) HL60‐FPR1 (FPR1): 60% | EC50 (FPR2): 25.9 ± 6.4 µM | efficacy (%) HL60‐FPR2 (FPR2): 60% | efficacy (%) hPMN (human neutrophils (hPMN)): 55% | EC50 (human neutrophils (hPMN)): 18.6 ± 4.7 µM

CC(C)c1c(NC(=O)Nc2ccc(Cl)cc2)c(=O)n(-c2ccccc2)n1C [Cpd43]
profile in animal models of rheumatoid arthritis [2]: excellent profile

COc1cccc(Cc2c(C)c(C)nn(CC(=O)Nc3ccc(Br)cc3)c2=O)c1 [EC3, reference compound]
efficacy (%) HL60‐FPR1 (FPR1): 85% | EC50 (FPR1; [3]): 0.019 ± 0.005 µM | efficacy (%) HL60‐FPR2 (FPR2): 80% | EC50 (FPR2; [3]): 0.043 ± 0.0016 µM | efficacy (%) hPMN (human neutrophils (hPMN)): 150% | EC50 (FPR3; 2017): 0.04 µM | anti‐inflammatory activity in vivo [1]: anti‐inflammatory activity

COc1cccc(Nc2c(C(C)=O)c(C)nn(CC(=O)Nc3ccc(Br)cc3)c2=O)c1 [EC10, reference compound]
efficacy (%) HL60‐FPR1 (FPR1): 185% | EC50 (FPR1; [3]): 0.045 ± 0.016 µM | efficacy (%) HL60‐FPR2 (FPR2): 60% | EC50 (FPR2; [3]): 0.17 ± 0.038 µM | efficacy (%) hPMN (human neutrophils (hPMN)): 150% | EC50 (human neutrophils (hPMN)): 0.036 ± 0.007 µM | EC50 (FPR3; 2016): 0.21 µM | anti‐inflammatory activity in vivo [1]: anti‐inflammatory activity

Reference: paper PMC8446315, “Synthesis, biological evaluation, molecular modeling, and structural analysis of new pyrazole and pyrazolone derivatives as N‐formyl peptide receptors agonists” (Chemical Biology & Drug Design, 2021)
